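Cultured in 96-well plates, cells were exposed to test compound for 48 hours across five concentrations. Here, GI50 denotes the concentration required for 50% inhibition of growth. TGI: concentration producing complete growth inhibition.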
What was measured:
Assay in all cases: growth of human tumour cells (NCI), 48 h
[1] = tested on: CAKI-1 renal
[2] = tested on: NCI-H226 lung
[3] = tested on: HCT-15 colon
[4] = tested on: ACHN renal
[5] = tested on: SR leukemia
[6] = tested on: NCI/ADR-RES ovarian
[7] = tested on: SN12C renal
[8] = tested on: EKVX NSCLC
[9] = tested on: SK-MEL-2 melanoma
[10] = tested on: NCI-H23 lung
[11] = tested on: TK-10 renal
[12] = tested on: OVCAR-4 ovarian
[13] = tested on: NCI-H460 lung
[14] = tested on: SF-295 CNS
[15] = tested on: HS 578T breast
[16] = tested on: SK-MEL-28 melanoma
[17] = tested on: NCI-H522 lung
[18] = tested on: PC-3 prostate
[19] = tested on: LOX IMVI melanoma
[20] = tested on: HOP-92 NSCLC
[21] = tested on: UACC-62 melanoma
[22] = tested on: OVCAR-5 ovarian
[23] = tested on: COLO 205 colon
[24] = tested on: DU-145 prostate
[25] = tested on: SF-539 CNS
[26] = tested on: U251 CNS
[27] = tested on: SK-MEL-5 melanoma
[28] = tested on: SNB-75 CNS
[29] = tested on: IGROV1 ovarian
[30] = tested on: SF-268 CNS
[31] = tested on: MCF7 breast
[32] = tested on: A549 NSCLC
[33] = tested on: MDA-MB-231 breast
[34] = tested on: OVCAR-3 ovarian
[35] = tested on: HT29 colon
[36] = tested on: HOP-62 NSCLC
[37] = tested on: UO-31 renal
[38] = tested on: UACC-257 melanoma
[39] = tested on: 786-0 renal
[40] = tested on: M14 melanoma
[41] = tested on: KM12 colon
[42] = tested on: RXF 393 renal
[43] = tested on: HL-60(TB) leukemia
[44] = tested on: MDA-MB-435
[45] = tested on: BT-549 breast
[46] = tested on: K-562 leukemia
[47] = tested on: RPMI-8226 leukemia
[48] = tested on: MOLT-4 leukemia
[49] = tested on: SW-620 colon
[50] = tested on: HCT-116 colon
[51] = tested on: A498 renal
[52] = tested on: SK-OV-3 ovarian
[53] = tested on: SNB-19 CNS
[54] = tested on: OVCAR-8 ovarian

`N#CC(C#N)=C1CCOc2ccc(F)cc21` gave a GI50 [1] of 15.4 µM, a TGI [1] of 51.9 µM and a GI50 [2] of 18 µM. It also gave a TGI [2] of 53.7 µM, a GI50 [3] of 15.5 µM and a TGI [3] of 30.3 µM. For the same molecule, the GI50 [4] was 13.3 µM, the TGI [4] was 26 µM and the GI50 [5] was 12.6 µM. The TGI [5] was 25.2 µM, the GI50 [6] was 16.1 µM and the TGI [6] was 29.6 µM. It also gave a GI50 [7] of 19.8 µM, a TGI [7] of 40.1 µM and a TGI [8] of 9.3 µM. The GI50 [9] was greater than 100 µM, the TGI [9] was greater than 100 µM and the GI50 [10] was 14.8 µM. The TGI [10] was 28.7 µM, the GI50 [11] was 14.1 µM and the TGI [11] was 33.3 µM. It also gave a GI50 [12] of 14.6 µM, a TGI [12] of 27.8 µM and a GI50 [13] of 14.2 µM. For the same molecule, the TGI [13] was 30.4 µM, the GI50 [14] was 16.9 µM and the TGI [14] was 41 µM. The GI50 [15] was 0.289 µM, the TGI [15] was 41.6 µM and the GI50 [16] was greater than 100 µM. The TGI [16] was greater than 100 µM, the GI50 [17] was greater than 100 µM and the TGI [17] was greater than 100 µM. The GI50 [18] was 13.9 µM, the TGI [18] was 26.8 µM and the GI50 [19] was 11.7 µM. For the same molecule, the TGI [19] was 23.9 µM, the GI50 [20] was 2.05 µM and the TGI [20] was 15.9 µM. The GI50 [21] was 11.3 µM, the TGI [21] was 28.9 µM and the GI50 [22] was 16.4 µM. For the same molecule, the TGI [22] was 39.9 µM, the GI50 [23] was 21.7 µM and the TGI [23] was 67.6 µM. It also gave a GI50 [24] of 14 µM, a TGI [24] of 34.6 µM and a GI50 [25] of 12.4 µM. For the same molecule, the TGI [25] was 24.9 µM, the GI50 [26] was 11.2 µM and the TGI [26] was 23.2 µM. It also gave a GI50 [27] of 33.2 µM, a TGI [27] greater than 100 µM and a GI50 [28] of 22.7 µM. It also gave a TGI [28] of 81.9 µM, a GI50 [29] of 17.4 µM and a TGI [29] of 57 µM. The GI50 [30] was 14.6 µM, the TGI [30] was 48.4 µM and the GI50 [31] was 11.3 µM. It also gave a TGI [31] of 23.3 µM, a GI50 [32] of 26 µM and a TGI [32] greater than 100 µM. It also gave a GI50 [33] of 13 µM, a TGI [33] of 25.7 µM and a GI50 [34] of 11.9 µM. The TGI [34] was 24.2 µM, the GI50 [35] was 64.2 µM and the TGI [35] was greater than 100 µM. It also gave a GI50 [36] of 13.2 µM, a TGI [36] of 25.9 µM and a GI50 [37] of 56.3 µM. For the same molecule, the TGI [37] was greater than 100 µM, the GI50 [38] was greater than 100 µM and the TGI [38] was greater than 100 µM. The GI50 [39] was 16.2 µM, the TGI [39] was 32.8 µM and the GI50 [40] was 19.5 µM. It also gave a TGI [40] of 45.9 µM, a GI50 [41] of 49.7 µM and a TGI [41] greater than 100 µM. For the same molecule, the GI50 [42] was 17.4 µM, the TGI [42] was 33.5 µM and the GI50 [43] was 66.5 µM. For the same molecule, the TGI [43] was greater than 100 µM, the GI50 [44] was greater than 100 µM and the TGI [44] was greater than 100 µM. It also gave a GI50 [45] of 53.4 µM, a TGI [45] greater than 100 µM and a GI50 [46] of 50.4 µM. The TGI [46] was greater than 100 µM, the GI50 [47] was 17.4 µM and the TGI [47] was 38.4 µM. For the same molecule, the GI50 [48] was 16.2 µM, the TGI [48] was 29.7 µM and the GI50 [49] was 29.6 µM. For the same molecule, the TGI [49] was greater than 100 µM, the GI50 [50] was 8.86 µM and the TGI [50] was 21 µM. For the same molecule, the GI50 [51] was 23 µM, the TGI [51] was 49.9 µM and the GI50 [52] was 16.3 µM. It also gave a TGI [52] of 30.7 µM, a GI50 [53] of 27.3 µM and a TGI [53] of 96.1 µM. It also gave a GI50 [54] of 19 µM and a TGI [54] of 43.7 µM.

— PubChem BioAssay (NCI)
